Experimental data as given in PubChem BioAssay (NCI).
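All cell lines were grown in 96-well plates and treated with compound for 48 hours. Definition used: TGI = concentration required for complete inhibition of growth.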

Experiments:
Assay in all cases: growth of human tumour cells (NCI), 48 h
COLO 205 colon = test system: COLO 205 colon
UACC-257 melanoma = test system: UACC-257 melanoma
HL-60(TB) leukemia = test system: HL-60(TB) leukemia
HCT-15 colon = test system: HCT-15 colon
SK-MEL-5 melanoma = test system: SK-MEL-5 melanoma
NCI-H522 lung = test system: NCI-H522 lung
MDA-MB-435 = test system: MDA-MB-435
OVCAR-8 ovarian = test system: OVCAR-8 ovarian
U251 CNS = test system: U251 CNS
OVCAR-3 ovarian = test system: OVCAR-3 ovarian
NCI/ADR-RES ovarian = test system: NCI/ADR-RES ovarian
SNB-19 CNS = test system: SNB-19 CNS
NCI-H460 lung = test system: NCI-H460 lung
OVCAR-4 ovarian = test system: OVCAR-4 ovarian
MCF7 breast = test system: MCF7 breast
786-0 renal = test system: 786-0 renal
SW-620 colon = test system: SW-620 colon
NCI-H23 lung = test system: NCI-H23 lung
UACC-62 melanoma = test system: UACC-62 melanoma

Row | Structure (SMILES) | TGI (COLO 205 colon) [µM] | TGI (UACC-257 melanoma) [µM] | TGI (HL-60(TB) leukemia) [µM] | TGI (HCT-15 colon) [µM] | TGI (SK-MEL-5 melanoma) [µM] | TGI (NCI-H522 lung) [µM] | TGI (MDA-MB-435) [µM] | TGI (OVCAR-8 ovarian) [µM] | TGI (U251 CNS) [µM] | TGI (OVCAR-3 ovarian) [µM] | TGI (NCI/ADR-RES ovarian) [µM] | TGI (SNB-19 CNS) [µM] | TGI (NCI-H460 lung) [µM] | TGI (OVCAR-4 ovarian) [µM] | TGI (MCF7 breast) [µM] | TGI (786-0 renal) [µM] | TGI (SW-620 colon) [µM] | TGI (NCI-H23 lung) [µM] | TGI (UACC-62 melanoma) [µM]
1 | Clc1ccccc1/C=C/c1nsc(/C=C/c2ccccc2Cl)n1 | > 100 | 64.1 | 52.5 | > 100 | > 100 | > 100 | > 100 | > 100 | > 100 | > 100 | > 100 | > 100 | 46.4 | > 100 | > 100 | 39.1 | – | – | –
2 | CC(C)C1CC=NN1C(=O)OC(C)(C)C (configuration not stated) | > 100 | > 100 | > 100 | > 100 | > 100 | > 100 | > 100 | > 100 | – | > 100 | > 100 | – | > 100 | – | > 100 | > 100 | > 100 | > 100 | > 100
3 | CC(O)c1c2c(cc3c1CC1(C3)Cc3cc4c(c(C(C)O)c3C1)CCC4)CCC2 (configuration not stated) | 28.6 | 31.7 | 21.2 | 41.1 | 25.6 | 30 | 31.9 | > 100 | 29.3 | 29.4 | 70.4 | – | – | 17.5 | 59.5 | 28.9 | – | 40.4 | 40.7
4 | CC(CC(=O)CO[C@H]1[C@H](O)[C@@H](O)[C@@H](O)[C@@H]2NC(=O)c3c(cc4c(c3O)OCO4)[C@H]21)OC1OC(CO)C(O)C(O)C1O (some centres not stated) | 1.16 | 6.19 | 2.45 | 3.43 | 1.48 | 1.23 | 4.5 | 2.07 | – | 2.65 | 3.97 | 7.89 | – | 1.27 | 1.47 | 2.92 | – | 3.07 | 4.17
5 | CC(=O)Oc1ccc(N2C(=O)C3c4[nH]c5ccccc5c4C4CCC(C(C)(C)C)CC4C3C2=O)cc1 (configuration not stated) | 17.5 | 24 | 5.47 | 12.3 | 8.19 | 9.93 | 22.6 | 13.5 | 11.1 | 7.07 | 14.7 | 9.84 | 5.83 | – | 13.7 | 4.31 | 5.16 | 8.79 | 20.7
6 | COC(=O)[C@@H]1C=C[C@@H](C#N)n2c(=O)n(-c3ccccc3)c(=O)n21 | > 100 | > 100 | – | > 100 | > 100 | 32.4 | > 100 | 57.8 | > 100 | 58.9 | 68 | > 100 | – | > 100 | > 100 | 84.7 | > 100 | > 100 | > 100
7 | CCOc1ccc2ccccc2c1NC1=NCCO1 | > 100 | > 100 | 49.6 | > 100 | > 100 | – | > 100 | > 100 | > 100 | – | > 100 | > 100 | 57.7 | > 100 | > 100 | > 100 | > 100 | > 100 | > 100
8 | CC(=O)Nc1ccc(Nc2cc(=O)n(C)c(=O)[nH]2)cc1 | > 100 | > 100 | – | > 100 | > 100 | > 100 | > 100 | > 100 | > 100 | > 100 | > 100 | > 100 | > 100 | > 100 | > 100 | > 100 | > 100 | > 100 | > 100
9 | Oc1c(C2=NNC(c3cccs3)C2)ccc2ccccc12 (configuration not stated) | 37.7 | > 100 | – | > 100 | 56.4 | 60.6 | 40 | 94.2 | 69.5 | 43.5 | 82 | – | 43.4 | > 100 | 51.7 | > 100 | 70.3 | > 100 | 30.3
10 | CC(NC1=CC(=O)c2ncccc2C1=O)C(O)c1ccccc1 (configuration not stated) | 29.7 | 10.6 | 16.5 | 17.3 | 2.6 | 24.8 | 3.02 | 36.2 | 14.3 | 16.3 | 43.1 | 20 | 3.22 | 22.3 | 7.56 | 26.2 | 19.8 | > 19.8 | –
11 | COc1ncnc2c1cnn2Cc1cn(COCC(O)CO)nn1 (configuration not stated) | > 100 | > 100 | > 100 | > 100 | > 100 | 26.2 | > 100 | > 100 | > 100 | > 100 | > 100 | > 100 | – | > 100 | > 100 | > 100 | > 100 | > 100 | > 100
12 | CC(=O)OCCC1c2ccccc2-n2nc(-c3ccccc3)c(O)c21 (configuration not stated) | 40.1 | 32.5 | 38.4 | 55.1 | 33 | 32.3 | 32.3 | 55.9 | 26.7 | 49.3 | 47 | 32.2 | 28.3 | 40.5 | 22.9 | 38.4 | 31.6 | 34.5 | –
13 | ClC(Cl)(Cl)C1CCOC1n1nc2ccccc2n1 (configuration not stated) | > 100 | > 100 | > 100 | > 100 | > 100 | > 100 | > 100 | > 100 | > 100 | > 100 | > 100 | – | > 100 | > 100 | > 100 | > 100 | – | > 100 | > 100
